The nature of this data set: Localised pain and erythema associated with intradermal injection of formulations. It is filed as in vivo, human. The method, then:
A study was conducted to evaluate localised pain and erythema associated with intradermal injection of medicaments manufactured in accordance with the invention and the pain and erythema associated with control injections of prior art compositions.
Experimental injectable solutions were prepared as described above.
Briefly, a volume of 100 μL of each formulation described above was injected intradermally into the inner aspect of the upper arms of a volunteer. In addition to the DS11 control described above, a solution of the known local anaesthetic lignocaine was also used as a further control. The pain on injection and erythema were categorised by the volunteer and a clinician.
Both the volunteer and the clinician undertook these evaluations. The extent of pain or erythema associated with the different formulations used was rated based upon the following categories (listed in ascending severity): […]

Where [1] appears, read: Volunteer 1, 100 μL intradermal, inner aspect of upper arm.
The mark [2] stands for this setting: Volunteer 2, 100 μL intradermal, inner aspect of upper arm.

In the case of `CCN(CC)CC(=O)Nc1c(C)cccc1C` [Lignocaine, lignocaine], the Erythema entry (Table 4, summary of Table 3) was “Marked”; the Erythema entry under setting [1] was “Marked”; the Erythema entry under setting [2] is “Marked”. Besides, the Pain entry is listed as “Marked” (Table 4, summary of Table 3); “Marked” under setting [1]; “Marked” under setting [2].
For Glucose, the Pain entry (in vivo) is “None”.

These data come from patent US7691816B2, “Pharmaceutical compositions” (Renovo Ltd., priority 2005, dated 2010).
